A short description of data set [1]: Molar enthalpy of transition or fusion. As to conditions: Crystal; DSC.
For data set [2] the following is noted: Crystal; DTA.

± gives the expanded uncertainty stated by the source.

As to `NC(C(=O)O)c1ccc(O)cc1.O=S(=O)(O)O` (racemic) [DL-p-hydroxyphenylglycine sulfate], the “Molar enthalpy of transition or fusion” value in data set [1] came to 10.7 ± 0.693 kcal/mol. Besides, the Normal melting temperature in data set [2] was 71.80 ± 2.1 °C.

Values taken from the NIST ThermoML archive (doi:10.1021/je049908l).
